# Test system: renal interstitial fibrosis model mice
# Test: Action in renal interstitial fibrosis model mice due to unilateral ureteral ligation
# Assay type: in vivo
# Protocol: Unilateral ureteral ligation mice were prepared according to the reported method (Kidney Int. 54, 110-119, (1998)). Male BL6/C3H F1 mice (6-week-old, body weight 25 g-30 g) were anesthetized with pentobarbital and subjected to median incision. Thereafter, left ureter was detached and ligated at two points with silk thread. Two models were prepared, and 10 mg/kg of Y-27632 was orally administered (administration with drinking water) to one group for consecutive days from 2 days prior to the operation. Ten days postoperation, the kidney on the ureter ligation side was removed, fixed with 4% paraformaldehyde and prepared into specimen, for staining, which were subjected to Masson trichrome staining. The level of renal interstitial fibrosis was calculated by image analysis of the area ratio (interstitium cortex area ratio:%) of the portion stained blue (fibrosis) relative to the entire sight. (Results)
compound,measurement,setting,value
"C[C@@H](N)[C@H]1CC[C@H](C(=O)Nc2ccncc2)CC1 [Compound Y-27632, (+)-trans-4-(1-aminoethyl)-1-(4-pyridylcarbamoyl)cyclohexane 2HCl.1H2O]",level of renal interstitial fibrosis,"10 mg/kg orally, against non-administration group, p < 0.01 (t-test)",significantly suppressed
same,portion stained blue (fibrosis) in Masson trichrome stained kidney specimen,"FIG. 1B, Y-27632 administration group, 10 mg/kg orally, ten days postoperation",scarcely detected
same,Area ratio of interstitium cortex (Fibrosis): % (average value ± SD),"unilateral ureteral ligation mice, 10 mg/kg orally (with drinking water) from 2 days prior to operation, kidney removed ten days postoperation, Masson trichrome staining, image analysis, n = 4",7.31 ± 3.11 %

# Source: patent publication US6720341B2, “Preventives/remedies for kidney diseases” (Mitsubishi Pharma Corporation, priority 2000, dated 2004)
